Numbered stars: 1 amine (or outer) side, 2 acyl side, 3 side chain; on linkers, the order of the positions; unused ones are H or OH. Bridge positions count the residues as written; N and C are the ends. Square brackets hold non-standard residues; d marks the D form. Peptide text beside a SMILES is read from it. I, II: the chains in the order shown. * marks the point of attachment. X1 = CCCCCCCCCCCCCCCCCOCCOCCOCCOCCOCCOCCOCCOCCOCCOCCOCCOCCOCCC(=O)*; CO(CH2CH2O)5CH2CH2CO = O=C(CCOCCOCCOCCOCCOCCC(=O)[*:2])[*:1]
Columns and labels:
[1] = tested on: antibody-sensitized human erythrocytes; test: Enhancement of CDC lysis assay (complement dependent cytotoxicity) in antibody-sensitized erythrocytes; assay type: cell-based
Protocol: Figure 5 CP‐06 and optimized analogues control CD59 activity in cellular assays. a) ILY lysis assay. SK‐BR‐3 cells were treated with CP‐06 (n = 4) or CP‐06[W3A] (n = 2), then with Sytox green dye and ILY ([…]). The plate was imaged immediately with the IncuCyte S3 Live Cell Analysis System and then every hour up to 14 h. The linear phase of lysis was taken from each well, and linear regression was performed to extract individual slope values, which were then normalized to maximum lysis rate (Sytox and ILY) vs. 0% lysis (Sytox only) within each plate. […] Human erythrocytes were sensitized with 1% w/v anti‐human erythrocyte Ab with 5% v/v human serum in the presence of a serial dilution of CP‐06C18 (black bars) or CP‐06scrmb‐C18 (red bars) Percent lysis enhancement was calculated by normalization to 0% enhancement (buffer well) and plotted as the mean of three biological replicates ± SEM. […]
Enhancement of CDC lysis assay: A 50% (v/v) erythrocyte stock suspension was prepared as described above. […] The following controls were included: (1) a positive control which contained Tween-20 (Cf = 1%), (2) a negative control well that contained PBS, and (3) a vehicle only well that contained PBS without erythrocytes to subtract the absorbance of the vehicle. […]

CD59 = molecular target: T1, CD59 (Homo sapiens, UniProt P13987); test: SPR (Biacore S200) binding to immobilised biotinylated CD59; details: SPR, immobilized CD59
T1 construct: Recombinant soluble human CD59 with an additional C-terminal cysteine residue
T1 sequence (P13987 26-102 limits assumed): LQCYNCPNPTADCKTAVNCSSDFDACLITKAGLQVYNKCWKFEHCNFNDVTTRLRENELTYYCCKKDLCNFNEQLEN
Source text: To identify which of these peptides bound CD59 most tightly, we used a Biacore S200 surface plasmon resonance (SPR) platform to investigate CD59 affinity (Figure 2b), using a known protein binding partner of CD59 (rILYd4) as a benchmark. Four 13‐mer macrocyclic peptides and one 14‐mer macrocyclic peptide were identified with a dissociation constant (K D) lower than that of rILYd4. Considering their fourfold lower molecular weight, these peptides bind with up to 19‐fold greater efficiency compared to rILYd4 (Figure 2b).
Equipment: SPR analysis was performed on a Cytiva Biacore S200. All buffers were prepared using ultra-pure water from a Millipore Elix Q-Gard purification system. Solutions and buffers were filtered with a 0.22 μm filter and degassed prior to use. The assays were performed on Series S streptavidin (SA) sensor chip (Cytiva). PBS-P+ buffer 10X (0.2 M phosphate buffer with 27 mM KCl, 1.37 M NaCl and 0.5% Surfactant P20 (Tween 20)) was used for the preparation of the assay running buffer (PBS-P+ 1X).
Immobilisation of CD59-biotin: Biotinylated CD59 was immobilised on the surface of a SA chip by non-covalent capture (biotin streptavidin interaction) as per the manufacturer’s instructions. The system was initially primed with running buffer and normalised using BIAnormalizing solution (70% (w/w) glycerol) (Cytiva). Before immobilising the protein, the surface was conditioned with three consecutive one-minute injections of 1 M NaCl in 50 mM NaOH. Biotinylated CD59 (0.5 µg/mL in running buffer) was flowed over the protein (active) channel for different contact times to achieve different immobilisation levels (600–1200 RU). After each protein injection, the needle and injection loop were washed using 50% isopropanol in 1 M NaCl and 50 mM NaOH. A reference channel was prepared by similar treatment; however, running buffer alone rather than CD59-biotin in running buffer was flowed over the chip the same way.
Interaction analysis: Multicycle kinetic and affinity approach was used for the analysis of peptides interactions with CD59. Two-fold serial dilutions of each peptide were prepared in running buffer and were flowed over both the ligand and reference channel using a flow rate (30 μL/min) at 25 °C. A zero concentration was added to each analyte series and three cycles of buffer were run between analytes to restore the baseline. The obtained sensorgrams were analysed using the embedded Biacore S200 Evaluation software. The data were normalised by subtracting RU values of the reference channel and zero concentration of the analyte series. Kinetic rate constants (kon and koff) were determined by fitting the normalised data using the built-in Kinetic analysis model (non-linear regression with a 1:1 Langmuir binding model), KD values were then calculated from the two rate constants ([…]). The KD values were determined again by fitting the normalised data using the built-in Affinity analysis model (1:1 Langmuir binding model).

[2] = Solubility and aggregation behaviour of hit peptides (stated in words); assay type: physicochemical
SK-BR-3 cells = test: ILY lysis assay (Sytox green, IncuCyte) in SK-BR-3 cells; assay type: cell-based, human
Protocol: Figure 5 CP‐06 and optimized analogues control CD59 activity in cellular assays. a) ILY lysis assay. SK‐BR‐3 cells were treated with CP‐06 (n = 4) or CP‐06[W3A] (n = 2), then with Sytox green dye and ILY ([…]). The plate was imaged immediately with the IncuCyte S3 Live Cell Analysis System and then every hour up to 14 h. The linear phase of lysis was taken from each well, and linear regression was performed to extract individual slope values, which were then normalized to maximum lysis rate (Sytox and ILY) vs. 0% lysis (Sytox only) within each plate. […] Human erythrocytes were sensitized with 1% w/v anti‐human erythrocyte Ab with 5% v/v human serum in the presence of a serial dilution of CP‐06C18 (black bars) or CP‐06scrmb‐C18 (red bars) Percent lysis enhancement was calculated by normalization to 0% enhancement (buffer well) and plotted as the mean of three biological replicates ± SEM.
Determination of optimal ILY concentration: 20,000 SK-BR-3 cells were seeded in a 96-well plate (Grenier, 655180) 24 h before treatment. […] Any bubbles were removed by a de-bubbler and the plate was immediately transferred to IncuCyte® S3 Live Cell Analysis System where each well was imaged 4 times at 10 × magnification with phase contrast and green fluorescence (λex 440–480 nm, λem = 504–544 nm) every hour for 24 h. […]

CCCCCCCCCCCCCCCCCOCCOCCOCCOCCOCCOCCOCCOCCOCCOCCOCCOCCOCCC(=O)NCCCC[C@H](NC(=O)CNC(=O)[C@@H]1CSCC(=O)N[C@H](Cc2ccc(O)cc2)C(=O)N[C@@H](CO)C(=O)N[C@@H](Cc2c[nH]c3ccccc23)C(=O)N[C@@H]([C@@H](C)O)C(=O)N[C@@H](Cc2c[nH]c3ccccc23)C(=O)NCC(=O)N[C@@H](CC(N)=O)C(=O)N[C@@H](CCCNC(=N)N)C(=O)N[C@@H](CO)C(=O)N[C@@H](CO)C(=O)N[C@@H](C(C)C)C(=O)N[C@@H](CCCNC(=N)N)C(=O)NCC(=O)N1)C(=O)NCC(N)=O [CP-06C18] ({CH2CO}-[dY]SWTWGNRSSVRGCGK(X1)G-NH2; thioether N-14)
enhancement of mAb-mediated CDC (in words) ([1]; anti-RBC antibody, 5% human serum): enhanced mAb‐mediated CDC in a dose‐dependent manner
lysis in the absence of anti-RBC (in words) ([1]; no anti-RBC antibody, Figure S4): Neither peptide caused lysis above background

CC(C)[C@@H]1NC(=O)[C@H](CO)NC(=O)[C@H](CO)NC(=O)[C@H](CCCNC(=N)N)NC(=O)[C@H](CC(N)=O)NC(=O)CNC(=O)[C@H](Cc2c[nH]c3ccccc23)NC(=O)[C@H]([C@@H](C)O)NC(=O)[C@H](Cc2c[nH]c3ccccc23)NC(=O)[C@H](CO)NC(=O)[C@@H](Cc2ccc(O)cc2)NC(=O)CSC[C@@H](C(N)=O)NC(=O)CNC(=O)[C@H](CCCNC(=N)N)NC1=O [CP-06] (HELM PEPTIDE1{[O=C(C[*:3])[*:2]].[dY].S.W.T.W.G.N.R.S.S.V.R.G.C.[am]}$PEPTIDE1,PEPTIDE1,1:R3-15:R3$$$V2.0)
koff (CD59; read-out: Koff (dissociation rate constant)): 0.0204 s⁻¹
kon (CD59; read-out: Kon (association rate constant)): 1.86e+06 M⁻¹ s⁻¹
solubility (in words) [2]: good solubility

CC(C)[C@@H]1NC(=O)[C@H](CO)NC(=O)[C@H](CO)NC(=O)[C@H](CCCNC(=N)N)NC(=O)[C@H](CC(N)=O)NC(=O)CNC(=O)[C@H](Cc2c[nH]c3ccccc23)NC(=O)[C@H]([C@@H](C)O)NC(=O)[C@H](Cc2c[nH]c3ccccc23)NC(=O)[C@H](CO)NC(=O)[C@@H](Cc2ccc(O)cc2)NC(=O)CSC[C@@H](C(=O)NCC(=O)N[C@@H](CCCCNC(=O)CCOCCOCCOCCOCCOCCC(=O)NCCCC[C@H](NC(=O)CNC(=O)[C@@H]2CSCC(=O)N[C@H](Cc3ccc(O)cc3)C(=O)N[C@@H](CO)C(=O)N[C@@H](Cc3c[nH]c4ccccc34)C(=O)N[C@@H]([C@@H](C)O)C(=O)N[C@@H](Cc3c[nH]c4ccccc34)C(=O)NCC(=O)N[C@@H](CC(N)=O)C(=O)N[C@@H](CCCNC(=N)N)C(=O)N[C@@H](CO)C(=O)N[C@@H](CO)C(=O)N[C@@H](C(C)C)C(=O)N[C@@H](CCCNC(=N)N)C(=O)NCC(=O)N2)C(=O)NCC(N)=O)C(=O)NCC(N)=O)NC(=O)CNC(=O)[C@H](CCCNC(=N)N)NC1=O [CP-06dimer] (I: {CH2CO}-[dY]SWTWGNRSSVRGCGKG-NH2 / II: {CH2CO}-[dY]SWTWGNRSSVRGCGKG-NH2; linker I:16-II:16 via CO(CH2CH2O)5CH2CH2CO; thioether I:N-I:14, II:N-II:14)
inhibition of ILY lysis (in words) (SK-BR-3 cells): completely inhibits ILY lysis

Reference: article PMC12207370, “Macrocyclic Peptide Probes for Immunomodulatory Protein CD59: Potent Modulators of Bacterial Toxin Activity and Antibody‐Dependent Cytotoxicity” (Angewandte Chemie (International Ed. in English), 2025)
